In paper PMC10119128, “Parkinson’s disease-associated ATP13A2/PARK9 functions as a lysosomal H^+,K^+-ATPase” (Nature Communications, 2023):

Tests used:
[1] = target: T1, ATP13A2 (Homo sapiens, UniProt Q9NQ11); assay: ΔTG-sensitive ATPase activity in membrane fractions, mock control; […]+ efflux; siRNA knockdown in SH-SY5Y; type: biochemical
T1 construct: full-length, N-terminal Xpress-tag, membrane fractions of transfected HEK293 cells
T1 sequence (Q9NQ11 1-1180): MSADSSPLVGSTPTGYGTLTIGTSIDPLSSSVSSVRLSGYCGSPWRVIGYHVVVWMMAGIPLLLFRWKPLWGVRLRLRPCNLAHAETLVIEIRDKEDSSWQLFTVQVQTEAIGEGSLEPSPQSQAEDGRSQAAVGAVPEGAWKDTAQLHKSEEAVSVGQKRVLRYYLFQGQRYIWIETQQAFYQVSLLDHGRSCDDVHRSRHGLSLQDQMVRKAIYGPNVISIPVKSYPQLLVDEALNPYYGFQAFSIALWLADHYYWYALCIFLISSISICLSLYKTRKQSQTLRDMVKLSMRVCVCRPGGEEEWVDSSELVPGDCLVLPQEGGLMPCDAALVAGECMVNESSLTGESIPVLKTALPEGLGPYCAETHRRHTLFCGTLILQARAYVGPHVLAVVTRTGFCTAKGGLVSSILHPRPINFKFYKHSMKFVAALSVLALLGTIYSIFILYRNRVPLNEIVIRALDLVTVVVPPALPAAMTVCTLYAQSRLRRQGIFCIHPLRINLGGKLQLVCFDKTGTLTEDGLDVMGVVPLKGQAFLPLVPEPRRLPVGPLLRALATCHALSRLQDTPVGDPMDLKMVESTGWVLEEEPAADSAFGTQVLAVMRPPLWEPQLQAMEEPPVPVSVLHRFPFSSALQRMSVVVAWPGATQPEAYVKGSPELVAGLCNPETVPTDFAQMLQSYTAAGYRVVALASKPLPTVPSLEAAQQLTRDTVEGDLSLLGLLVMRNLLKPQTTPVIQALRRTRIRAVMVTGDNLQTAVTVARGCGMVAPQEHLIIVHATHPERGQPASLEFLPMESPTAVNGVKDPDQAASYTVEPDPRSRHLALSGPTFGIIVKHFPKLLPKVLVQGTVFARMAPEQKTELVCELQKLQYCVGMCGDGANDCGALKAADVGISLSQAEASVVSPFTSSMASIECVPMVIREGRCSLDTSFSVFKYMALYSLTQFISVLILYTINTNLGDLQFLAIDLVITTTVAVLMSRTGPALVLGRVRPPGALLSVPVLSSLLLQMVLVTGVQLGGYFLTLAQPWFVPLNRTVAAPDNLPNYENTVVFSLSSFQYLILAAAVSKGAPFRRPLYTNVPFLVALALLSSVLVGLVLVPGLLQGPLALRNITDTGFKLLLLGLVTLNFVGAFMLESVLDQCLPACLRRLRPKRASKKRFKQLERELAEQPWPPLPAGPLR

[2] = target: T1, ATP13A2; assay: ΔTG-sensitive ATPase activity in membrane fractions, mock control; […]+ efflux; type: biochemical

| IC50 [1] [µM] | Compound | IC50 [2] [µM] |
| --- | --- | --- |
| 1.2 | Cc1nc2c(OCc3ccccc3)cccn2c1CC#N [SCH28080] |  |
|  | CO/C1=C\C(C)=C\[C@@H](C)[C@@H](O)[C@@H](C)C/C(C)=C/C=C/[C@H](OC)[C@@H]([C@@H](C)[C@@H](O)[C@H](C)[C@@]2(O)C[C@@H](O)[C@H](C)[C@@H](C(C)C)O2)OC1=O [bafilomycin A1] | 0.0005 |
| 0.8 | CNCc1cc(-c2ccccc2F)n(S(=O)(=O)c2cccnc2)c1 [vonoprazan] |  |
